# Assay results taken from the NIST ThermoML archive (doi:10.1016/j.fluid.2014.01.018).
# Numbers after ± are expanded uncertainties.
# Experiments:
# [1] = Crystal; DTA
# [2] = Molar enthalpy of transition or fusion; settings: Crystal; DSC
smiles,measurement,setting,value
CC(C)C1=CC2=CC[C@@H]3[C@](C)(CCC[C@@]3(C)C(=O)O)[C@H]2CC1 [abietic acid],Normal melting temperature,[1],177.74 ± 0.41 °C
same,Molar enthalpy of transition or fusion,[2],4.65 ± 0.136 kcal/mol
